Here are results for five compounds from ChEMBL document CHEMBL1926603 (Bioorg Med Chem Lett, 2011).

One experiment concerns the target T1, Tyrosinase (Agaricus bisporus, UniProt O42713).
T1 sequence (O42713 whole entry): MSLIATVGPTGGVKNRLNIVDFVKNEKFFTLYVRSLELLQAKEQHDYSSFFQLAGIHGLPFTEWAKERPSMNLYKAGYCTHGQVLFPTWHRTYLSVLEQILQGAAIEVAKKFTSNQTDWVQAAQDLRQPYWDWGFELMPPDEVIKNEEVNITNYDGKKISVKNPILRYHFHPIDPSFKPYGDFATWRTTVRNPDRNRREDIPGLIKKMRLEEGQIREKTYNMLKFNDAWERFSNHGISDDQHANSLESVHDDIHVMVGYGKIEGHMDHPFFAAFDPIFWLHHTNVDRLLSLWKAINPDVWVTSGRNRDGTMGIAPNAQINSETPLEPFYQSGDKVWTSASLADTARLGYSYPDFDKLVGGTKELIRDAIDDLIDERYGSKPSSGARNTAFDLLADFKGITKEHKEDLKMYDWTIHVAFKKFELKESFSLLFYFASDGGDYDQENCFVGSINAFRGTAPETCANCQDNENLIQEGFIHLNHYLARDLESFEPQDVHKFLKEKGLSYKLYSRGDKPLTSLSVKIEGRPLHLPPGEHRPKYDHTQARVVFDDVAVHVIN
In words: Inhibition of mushroom tyrosinase activity using L-tyrosin as substrate after 20 mins.

Experiment [1] can be described thus: cells. The settings on record: Mus musculus, Melan-a.
Description: Cytotoxicity against mouse Melan-a cells by modified crystal voilet assay
A short description of experiment [2]: cells. The settings on record: Mus musculus, Melan-a, 96 h.
Description: Depigmentation activity in mouse Melan-a cells assessed as inhibition of melanin formation after 4 days
In experiment [3] the test system is Radical scavenging activity.
Description: Antioxidant activity assessed as DPPH radical scavenging activity after 30 mins
Experiment [4] is described as follows: Ratio of kojic acid IC50 to compound IC50 for depigmentation activity in mouse Melan-a cells assessed as inhibition of melanin formation after 4 days. It is filed as functional.

Where only a bound is given, the exact number is not on record here.

As usually defined, the IC50 is the concentration that gives 50% inhibition. High values mean lower potency, low ones higher potency. As to `O=C(OCc1cc(=O)c(O)co1)c1ccc2cc(O)ccc2c1`, the IC50 against Tyrosinase is 9.65 µM; in the experiment “cells [1]”, > 200 µM; in the experiment “cells [2]” it was > 200 µM; in experiment [3] it was > 200 µM.

As to `O=C(OCc1cc(=O)c(O)co1)c1ccc(O)cc1`, the IC50 against Tyrosinase was 5.51 µM; in “cells [1]” it was > 200 µM; in the experiment “cells [2]”, > 200 µM; in experiment [3], > 200 µM.

Turning to `COc1coc(COC(=O)C2(C)CCc3c(C)c(O)c(C)c(C)c3O2)cc1=O` (stereo unspecified), the IC50 against Tyrosinase is > 200 µM; in the experiment “cells [1]”, > 200 µM; in the experiment “cells [2]” it was > 200 µM; in experiment [3] it was 19.8 µM.

Consider `Cc1c(C)c2c(c(C)c1O)CCC(C)(C(=O)OCc1cc(=O)c(O)co1)O2` (racemic), for which the IC50 against Tyrosinase was determined as 5.36 µM; in “cells [1]”, 56.5 µM; in the experiment “cells [2]” it was 17.7 µM; in experiment [3], 11.6 µM. The “Ratio IC50” value in experiment [4] was found to be 90.

As to `Cc1c(C)c2c(c(C)c1O)CCC(C)(C(=O)O)O2` (stereo unspecified) [TROLOX], the IC50 on Tyrosinase was > 200 µM; in the experiment “cells [1]”, 300 µM; in the experiment “cells [2]”, > 300 µM; in experiment [3], 10.1 µM.
